From a melting point compilation (Tetko et al.; mined from patent text by program, amines drawn as free bases though some values may be those of a salt) come the findings set out here.

In general, melting point refers to the temperature, or range, at which the solid turns liquid.

Compound `CC(C)(C)OC(=O)N[C@@H](Cc1ccccc1)[C@H](O)CNC1(c2cccc(C(F)(F)F)c2)CC1` returned a melting point of 124 °C.

Take `O=C(NCCO)c1cccc(-c2cccc3nc(Cc4cccc(C(F)(F)F)c4)oc23)c1`: the melting point was in the range of 122 to 123 °C.

The compound `Cc1cccc(C)c1NC(=O)C(Cl)Br` (configuration not stated) showed a melting point of 148 to 149 °C.

On to `CCCCc1nn(-c2ccccc2C(F)(F)F)c(=O)n1Cc1ccc(-c2ccccc2S(=O)(=O)NC(=O)C2CC2)cc1`, for which the melting point was 187 to 189 °C.

Consider `Cc1c(NC(=O)c2ccc(OC[C@@H]3CCCO3)cc2)ccc2c1cc(CNCC(C)(C)O)n2C`, for which the melting point was in the range of 160 to 162 °C.

`Cc1ccccc1-c1c2c(cc3ccc(O)cc13)-c1ccc(O)cc1CO2` had a melting point of 193 to 196 °C.

Compound `CCOC(OCC)C(O)(Cc1c(NC(=O)C(C)(C)C)cnc(Cl)c1C)c1ccccc1` (configuration not stated) yielded a melting point of 133 °C.

Compound `CCCn1c(COCC)nc2c(N)nc3cc(O)ccc3c21` registered a melting point of more than 250 °C.

`CC1(C)Oc2ccc(C#N)cc2[C@@H](NC2=C(C=O)C(=O)CC2)[C@@H]1O` (relative stereo) gave a melting point of 255 to 258 °C.

`O=C(NC(CO)(CO)CO)c1ccc(C(=O)NC(CO)(CO)CO)cc1` displayed a melting point of 188 to 190 °C.

Regarding `NS(=O)(=O)OCCOc1ccc(-n2cncn2)cc1`, the melting point fell in the range of 134 to 136 °C.

Turning to `COc1cc(-c2nc(NCCC(=O)O)c3c(C)c(C#N)sc3n2)cc(OC)c1OC`, the melting point is 222 to 225 °C.

In turn, `NC(=O)c1cc(Cl)c(Cl)c(Cl)n1` registered a melting point of 169 to 170 °C.

For the compound `CCOCc1nc2c(N)nc3cccnc3c2n1CC1(O)CCOCC1`, the melting point was in the range of 166 to 167 °C.

`COC(=O)/C=C/c1c(-c2ccc(F)cc2)c2ccccc2n1C(C)C`: the melting point fell in the range of 155 to 157 °C.

For the compound `CC(C(=O)NO)C(=O)N(c1ccccc1)c1ccccc1` (configuration not stated), the melting point was in the range of 171 to 172 °C.

As for `CCOC(=O)C(=NOC)C1=CSc2ccccc2S1`, the melting point was 78 to 81 °C.

Consider `CS(=O)(=O)c1ccc(-c2coc3ccc(-c4nnc(N)o4)cc23)cc1Cl`, for which the melting point was in the range of 263 to 264 °C.

In turn, `NNc1nccc(-c2ccc(Oc3ccccc3)cc2)c1Cl` gave a melting point of 173 °C.

`CC(C)(C)OC(=O)n1ccc2c3[nH]c(CO)nc3ccc21` came in with a melting point of 152 °C.

Compound `O=C(Nc1ccc2c(c1)CC(NS(=O)(=O)c1ccccc1)C2)c1ccccc1-c1ccc(C(F)(F)F)cc1` (configuration not stated) gave a melting point of 96 °C.

On to `COc1ccc(-c2cc(COS(C)(=O)=O)c(=O)n(Cc3ccc(F)cc3)n2)cc1F`, for which the melting point was 125 to 133 °C.

For `N#Cc1cnc2cnc(F)cc2c1Nc1ccc(Oc2ccccc2)cc1`, the melting point is 211 to 213 °C.

Turning to `CCN(CC)C(=O)Cc1c(-c2ccc(Br)cc2)nc2c(C)cc(C)nn12`, the melting point was in the range of 171 to 175 °C.

For `CCn1ncc2c1ncc1c(NC)nc3ncnn3c12`, the melting point is more than 300 °C.

`CC12C=CC(=O)CC1CCC1C2CCC2(C)C(C(=O)NC3(C#N)CCCCC3)CCC12` (configuration not stated) returned a melting point of 292 to 300 °C.

As for `Cc1c(-c2ccccc2)oc2c(C(=O)NCCCN3CCN(c4ccccc4O)CC3)cccc2c1=O`, the melting point is 118 to 120 °C.

In the case of `CCNC1C(C)CN(c2c(F)c(N)c3c(=O)c(C(=O)O)cn(C4CC4)c3c2OC)CC1C` (configuration not stated), the melting point was 202 to 204 °C.

The compound `O=C(O)Cn1cnnn1` gave a melting point of 125 to 127 °C.

`Cc1cc(C2=NOC(c3cccc(C(F)(F)F)c3)(C(F)(F)F)C2)ccc1Br` (configuration not stated) yielded a melting point of 84 to 85 °C.

As for `Cc1c(CCN(C)C(=O)OC(C)(C)C)c2cc(S(=O)(=O)c3cc(F)cc(F)c3)ccc2n1C`, the melting point lay in the range of 158 to 162 °C.

For the compound `Cn1nc(-c2ccccc2)c(C=Cc2ccccc2C(=O)O)c1Cl`, the melting point was in the range of 161 to 163 °C.

Turning to `C=Cc1cc(C(C)NC(=O)OC(C)(C)C)ccc1NS(=O)(=O)C=C` (configuration not stated), the melting point was in the range of 80 to 82 °C.

`Nc1cc(F)ccc1C(=O)Nc1ccccc1`: the melting point was in the range of 120 to 122 °C.

With `CCCn1nnn(-c2cc(OC(C)=O)c(Cl)cc2Cl)c1=O`, the melting point fell in the range of 91 to 92 °C.

On to `CCOC(Nc1ccc(C(=O)O)cc1)C(=O)c1ccc(Oc2ccc(Cl)c3ccccc23)cc1` (configuration not stated), for which the melting point lay within 155 to 165 °C.

On to `CC(C)Cc1nc2c(C(F)(F)F)cccc2c(O)c1C(=O)O`, for which the melting point came out at 200 °C.

Compound `Cc1cc2c(-c3ccccc3F)nc(=O)n(C)c2s1` returned a melting point of 119 to 121 °C.

In the case of `CC(C)c1cccc(S(=O)(=O)n2c(Cc3ccc(C(=O)O)cc3)cc3cc(C(F)(F)F)ccc32)c1`, the melting point turned out to be 175 °C.

In the case of `COC(=O)c1cc2n(n1)-c1ccc(Cl)cc1C(c1ccccc1)NC2=O` (configuration not stated), the melting point is 236 to 238 °C.

`CCN(CC)CCNC(=O)c1ccc2cc(I)ccc2n1` displayed a melting point of 75 to 77 °C.

With `NS(=O)(=O)c1cc(C(=O)O)cc(SCc2ccsc2)c1Oc1ccccc1`, the melting point lay within 222 to 224 °C.

On to `Nc1c(F)c(N2CCC(C(N)c3ccco3)C2)c(F)c2c1c(=O)c(C(=O)O)cn2C1CC1F` (configuration not stated), for which the melting point is 188 to 189 °C.

`Cc1ccc(C(=O)Cl)cc1OCc1ccccc1`: the melting point is 49 to 51 °C.

`O=CNCCSc1ccc2nccn2n1` came in with a melting point of 148 to 151 °C.

For the compound `CC(=O)OC1CSC(Oc2cncc(-c3ccc(C)o3)c2)C(OC(C)=O)C1OC(C)=O` (configuration not stated), the melting point was 124 °C.

Turning to `CCC(=O)OCOC(=O)C1=C(C)N(COC)C(C)=C(C(=O)OCOC(=O)CC)C1c1cccc([N+](=O)[O-])c1`, the melting point is 86 to 87 °C.

Take `NC(CO)(CO)CCc1ccc(C(=O)CCCCCCc2ccccc2)cc1`: the melting point was 121 to 122 °C.

As to `CCN(CC)C(=O)n1cc(C=O)c(S(=O)(=O)c2cccc(Cl)c2C)n1`, the melting point lay in the range of 95 to 97 °C.

Turning to `COc1cc2c(cc1-c1cccnc1)-c1c(Br)c3c(n1CC2)C(=O)N(C(C)(C)C)CCC3`, the melting point lay within 184 to 186 °C.

The compound `CCCc1cc(CC(=O)O)ccc1OC1COc2ccc(C(C)=O)c(O)c2C1` (configuration not stated) gave a melting point of 129 to 130 °C.

Consider `O=C1CCC2=C(CCc3cc(Br)ccc32)N1`, for which the melting point was in the range of 227 to 228 °C.

As to `CNC(=O)c1cnn2c(C(=O)N3CCN(C(=O)OC(C)(C)C)CC3)c(Cc3cccc(F)c3C)c(-c3ccccc3)c2c1`, the melting point lay in the range of 153 to 154 °C.

Compound `O=C(O)C1Cc2c([nH]c3ccccc23)CN1C(=S)SCCc1ccccc1` (configuration not stated) returned a melting point of 89 to 90 °C.

As for `O=C(c1ccc(O)c(F)c1)N(c1ccc(O)cc1)c1ccc(F)cc1`, the melting point lay in the range of 110 to 112 °C.

As to `CN1CCN(c2cccc3ccc(OCc4cccc(Cl)c4)cc23)CC1`, the melting point lay in the range of 67.5 to 68 °C.

As for `CC(=O)Nc1cccc2cccc(N=[N+]=[N-])c12`, the melting point fell in the range of 148 to 149 °C.

`O=C(NC12CC3CC(CC1C3)C2)c1ccncc1C(c1ccc(O)cc1)c1ccc(O)cc1`: the melting point fell in the range of 218 to 220 °C.

On to `CCOC(=O)C(=CNc1ccc(CC)nc1)C(=O)OCC`, for which the melting point lay in the range of 55 to 57 °C.

`CC(C(=O)N1c2ccccc2N(C)C(=O)c2cnc(-c3ccccc3)nc21)N1CCNCC1` (configuration not stated) yielded a melting point of 197 °C.

Turning to `CCCc1nc2ccccc2c(=O)n1Cc1ccc(-c2ccccc2-c2nnn[nH]2)cc1`, the melting point is 171 to 172 °C.

Take `ClCc1cn2cc(Cl)ccc2n1`: the melting point lay in the range of 123 to 124 °C.

Turning to `O=C(Nc1ccc2ccc(-c3ccccc3)nc2n1)c1cccc(Br)c1`, the melting point stood at 175 °C.

Take `COc1ccc(F)c(N)c1`: the melting point lay in the range of 27 to 28 °C.

In turn, `Cn1cc(C(=O)NCc2ccc(Cl)cc2)c(=O)c2cc(CCl)cc(I)c21` showed a melting point of 237 to 239 °C.

The compound `COc1ccc(C(=O)Nc2c(Cl)cncc2Cl)c2c1OCC2CC(=O)O` (configuration not stated) registered a melting point of 259 to 263 °C.

Turning to `CCNC(=O)c1ccc(N2CCN(Cc3cc4c(c(OC)c3)OC(C)C(=O)N4)CC2)c(F)c1` (configuration not stated), the melting point fell in the range of 228 to 229 °C.

On to `O=C1Nc2ccccc2N(C(=O)N2CCCC(CCN3CCCCCC3)C2)c2ncccc21` (configuration not stated), for which the melting point is 152 to 154 °C.

As to `COc1cccc(C(O)CNCCc2ccc(OC)c(OC)c2Cl)c1` (configuration not stated), the melting point is 95.5 to 96.5 °C.

Regarding `COCCc1nnc(NC(=O)C2c3ccccc3Oc3ccccc32)o1`, the melting point was in the range of 105 to 106 °C.

`CSc1c(C(=O)NN2CCCCC2)nn(-c2ccc(Cl)cc2Cl)c1-c1ccc(Cl)cc1`: the melting point was 172 to 174 °C.

For the compound `Cc1cc(SC2=C(O)CC(CCc3ccc(O)cc3)(C3CCCC3)OC2=O)c(C(C)(C)C)cc1N` (configuration not stated), the melting point lay in the range of 133 to 135 °C.

`CCCC[C@H](NC(=O)[C@H](CC(C)C)NC(=O)OCc1ccccc1)C(=O)CCCc1ccco1` came in with a melting point of 62 to 64 °C.

Regarding `CCOC(=O)c1cc2cc(C)c(C)cc2[nH]1`, the melting point was 164 °C.

With `CC(=O)NC1(c2ccc(=O)n(C)c2)CCCCC1`, the melting point lay in the range of 194 to 195 °C.

Turning to `CCOC(=O)CSc1nnc(SCCCBr)s1`, the melting point lay within 118 to 120 °C.

With `COc1ccc2c(c1)-c1noc(O)c1CC2`, the melting point fell in the range of 135 to 138 °C.

In turn, `COc1nc2ccnn2c2ncccc12` showed a melting point of 154 °C.

The compound `CC1(C)CC(=O)N(C(=O)Nc2ccccc2)CC(C)(C)N1O` displayed a melting point of 112 to 114 °C.

With `Oc1cc(-c2ccccc2)on1`, the melting point lay within 150 to 151 °C.

Compound `Cc1ccc(S(=O)(=O)c2nc(C)c(Br)c(C)n2)cc1` showed a melting point of 157 to 158 °C.

For the compound `O=C(c1ccc(-n2ccc(C(F)(F)F)n2)cc1)N1Cc2cccn2Cc2ccccc21`, the melting point lay within 166 to 167 °C.

With `COc1ccccc1CNC(=O)c1ccc2c(c1)N(C(C)CN1CCCC1)c1ccccc1S2` (racemic), the melting point is 127 °C.

`COc1ccccc1C(=O)CC(=O)c1ccccc1O`: the melting point is 80 to 84 °C.

The compound `N=C(N)Nc1nc(CCCCNc2ncc(Cc3ccc(Cl)cc3)c(=O)[nH]2)cs1` showed a melting point of 200 to 205 °C.

`COC(=O)c1scc(-c2ccccc2)c1-c1ccc(S(C)=O)c(F)c1` (configuration not stated) displayed a melting point of 164 °C.

Turning to `O=C(NO)c1ccc(OC/C=C/COc2ccc(C(=O)NO)cc2)cc1`, the melting point was 205 to 210 °C.
